In patent US20260226048A1, “MULTI-CYCLIC IRAK AND FLT3 INHIBITING COMPOUNDS AND USES THEREOF” (CHILDREN'S HOSPITAL MEDICAL CENTER, priority 2023, published 2026) one finds IC50 data, which are given here for 17 compounds.

Read-outs that look alike come from different tables or passages of the source.

For one assay, the target named is T1, IRAK1 (Homo sapiens, UniProt P51617).
T1 construct: purchased Reaction Biology (RBC HotSpot)
The experiment in a line: RBC HotSpot Kinase Assay, IRAK1. Format: biochemical. Conditions: isolated kinase enzyme, 33P-ATP, P81 filter-binding. From the text: (§1) This assay uses the isolated kinase enzyme. […] Unlike kinase binding assays that measure competition for ATP, the HotSpot Kinase Assay is a functional assay that measures catalytic activity; as such it measures relative functional potency regardless of the mechanism of enzyme inhibition. This assay uses the form of the various enzymes that are easiest to express, which may not necessarily be the form of the enzyme that exist in the cell. (Sometimes the carboxy terminus has been truncated to aid in expression, or, if it is a receptor kinase, the enzyme itself is isolated from the other parts of the receptor that are involved in regulating kinase activity.)
(§2) The reagent used was as follows: Base Reaction buffer; 20 mM Hepes (pH 7.5), 10 mM MgCl2, 1 mM EGTA, 0.01% Brij35, 0.02 mg/ml BSA, 0.1 mM Na3VO4, 2 mM DTT, 1% DMSO. Required cofactors were added individually to each kinase reaction.

Another assay concerns MOLM14 D835Y cells. The experiment in a line: MOLM14 D835Y cell viability assay (Cell Titer Glo). The class given is cell-based. As to conditions: cell viability, Cell Titer Glo, 48 hours, read-out: MOLM14 D835Y IC50. The procedure:
Both cell lines have activated FLT3 receptors, each of which carry additional resistance mutations in the kinase domain (D835Y and F691L, respectively).
For viability/cytotoxicity assessments, cells were seeded into 1536-well white polystyrene tissue culture-treated Greiner plates using a Multidrop Combi dispenser (ThermoFisher), in final volume 5 μL of growth media per well, at a density of 1000 cells per well. […] Plates were incubated for 48 hours at standard incubator conditions covered by a stainless steel gasketed lid to prevent evaporation. 48 hours post compound addition, 3 μL of Cell Titer Glo (Promega) were added to each well and plates were incubated at room temperature for 15 minutes with the stainless-steel lid in place. Luminescence readings were taken using a Viewlux imager (PerkinElmer) with a 2 second exposure time per plate.
Background: In ATP-based viability assays light output follows the ATP content of the culture.

Another assay addresses T2, IRAK4 (Homo sapiens, UniProt Q9NWZ3).
T2 sequence (Q9NWZ3 1-460): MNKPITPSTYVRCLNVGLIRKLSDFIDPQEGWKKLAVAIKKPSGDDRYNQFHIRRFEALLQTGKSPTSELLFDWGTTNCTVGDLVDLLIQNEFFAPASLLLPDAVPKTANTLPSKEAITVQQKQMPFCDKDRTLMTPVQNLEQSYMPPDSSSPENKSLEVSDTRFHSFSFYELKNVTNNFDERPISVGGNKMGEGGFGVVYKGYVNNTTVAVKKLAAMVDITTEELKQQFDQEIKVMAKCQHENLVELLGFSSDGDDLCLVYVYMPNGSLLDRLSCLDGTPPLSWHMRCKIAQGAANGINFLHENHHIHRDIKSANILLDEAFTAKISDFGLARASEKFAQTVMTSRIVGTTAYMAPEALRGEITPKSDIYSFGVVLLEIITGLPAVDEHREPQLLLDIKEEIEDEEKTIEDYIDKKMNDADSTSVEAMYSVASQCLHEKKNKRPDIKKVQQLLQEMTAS
The experiment in a line: RBC HotSpot Kinase Assay, IRAK4. Format: biochemical. Also on record: purchased Reaction Biology (RBC HotSpot). As to conditions: isolated kinase enzyme, 33P-ATP, P81 filter-binding.
Text: as §1, with “enzyme. This assay is very useful for determining competition of the inhibitor for ATP and/or substrates and for measuring the kinetics of enzyme inhibition.” for “enzyme.”
as §2
The reaction procedure was as follows: • 1) Substrates were prepared in freshly prepared Reaction Buffer. • 2) Any required cofactors were delivered to the substrate solution above. • 3) Kinase was delivered into the substrate solution and gently mixed. • 4) Compounds were delivered in 1000A DM into the kinase reaction mixture by Acoustic technology (Echo550; nanoliter range), followed by incubation for 20 min at room temp. • 5) 33P-ATP was delivered into the reaction mixture to initiate the reaction. • 6) The mixture was incubated for 2 hours at room temperature. • 7) Kinase activity was detected by P81 filter-binding method.

The next assay has as its target T3, FLT3 (Homo sapiens, UniProt P36888).
T3 sequence (P36888 27-993): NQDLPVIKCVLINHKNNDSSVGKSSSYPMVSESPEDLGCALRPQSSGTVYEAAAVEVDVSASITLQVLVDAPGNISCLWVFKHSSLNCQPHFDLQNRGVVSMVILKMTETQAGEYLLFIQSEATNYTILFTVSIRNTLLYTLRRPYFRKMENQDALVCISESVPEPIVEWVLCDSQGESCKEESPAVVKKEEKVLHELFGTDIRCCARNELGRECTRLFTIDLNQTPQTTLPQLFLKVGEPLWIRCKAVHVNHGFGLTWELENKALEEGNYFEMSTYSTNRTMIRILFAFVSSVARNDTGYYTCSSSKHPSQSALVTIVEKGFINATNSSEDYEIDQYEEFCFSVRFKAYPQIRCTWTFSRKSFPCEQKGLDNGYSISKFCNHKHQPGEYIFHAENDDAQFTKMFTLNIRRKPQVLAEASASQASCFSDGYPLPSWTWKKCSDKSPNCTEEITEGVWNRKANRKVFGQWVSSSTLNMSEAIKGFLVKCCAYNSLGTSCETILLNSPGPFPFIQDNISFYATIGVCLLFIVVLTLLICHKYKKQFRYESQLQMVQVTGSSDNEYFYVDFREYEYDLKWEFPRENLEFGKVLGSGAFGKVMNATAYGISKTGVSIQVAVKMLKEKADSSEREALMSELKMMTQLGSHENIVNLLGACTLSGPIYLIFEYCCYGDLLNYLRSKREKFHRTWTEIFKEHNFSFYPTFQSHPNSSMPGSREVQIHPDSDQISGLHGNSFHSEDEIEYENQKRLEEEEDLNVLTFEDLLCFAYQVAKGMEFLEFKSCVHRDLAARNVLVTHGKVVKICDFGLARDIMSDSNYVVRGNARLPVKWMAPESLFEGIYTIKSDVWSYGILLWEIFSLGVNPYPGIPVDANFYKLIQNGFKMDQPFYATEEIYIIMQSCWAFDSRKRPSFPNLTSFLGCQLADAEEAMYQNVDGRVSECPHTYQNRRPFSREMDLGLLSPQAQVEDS
The assay can be described thus: RBC HotSpot Kinase Assay, FLT3. Format: biochemical. Also on record: purchased Reaction Biology (RBC HotSpot). Conditions: isolated kinase enzyme, 33P-ATP, P81 filter-binding.
Text: as §1, §2

T1 sequence (P51617 whole entry): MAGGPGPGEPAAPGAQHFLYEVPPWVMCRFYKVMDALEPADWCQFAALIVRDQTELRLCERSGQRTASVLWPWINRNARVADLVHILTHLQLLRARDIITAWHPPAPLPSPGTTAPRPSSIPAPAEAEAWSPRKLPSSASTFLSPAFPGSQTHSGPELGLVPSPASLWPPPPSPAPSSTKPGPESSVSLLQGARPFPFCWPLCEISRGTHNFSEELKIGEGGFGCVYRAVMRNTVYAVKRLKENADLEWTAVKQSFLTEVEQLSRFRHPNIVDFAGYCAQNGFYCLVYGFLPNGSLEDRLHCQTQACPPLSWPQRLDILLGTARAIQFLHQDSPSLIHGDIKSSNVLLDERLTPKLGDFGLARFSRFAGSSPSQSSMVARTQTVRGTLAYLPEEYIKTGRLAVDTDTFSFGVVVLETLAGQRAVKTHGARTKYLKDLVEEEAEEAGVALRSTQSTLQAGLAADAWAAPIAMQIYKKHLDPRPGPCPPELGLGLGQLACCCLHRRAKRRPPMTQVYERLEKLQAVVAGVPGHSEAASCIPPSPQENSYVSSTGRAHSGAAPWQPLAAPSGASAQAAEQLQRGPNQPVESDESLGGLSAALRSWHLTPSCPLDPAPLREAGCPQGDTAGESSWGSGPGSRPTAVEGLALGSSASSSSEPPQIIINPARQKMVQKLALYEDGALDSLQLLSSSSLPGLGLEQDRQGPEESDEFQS

`CC(O)(c1ccc2ncc(-c3ccnc(N[C@H]4CNC[C@@H]4F)n3)n2c1)C(F)(F)F` (single isomer, unassigned) [Compound 24a]: the IC50 (as a rule, the concentration at which inhibition is half-maximal) at IRAK1 is 16 nM; in the assay with MOLM14 D835Y cells (Homo sapiens, MOLM-14, 48 h), 41 nM; at IRAK4, 0.9 nM; at FLT3 it was under 0.5 nM.

Turning to `CC(O)(c1ccc2ncc(-c3ccnc(N[C@H]4CNC[C@@H]4F)n3)n2c1)C(F)(F)F` (single isomer, unassigned) [Compound 26a], the IC50 at IRAK1 is 5 nM; with MOLM14 D835Y cells, 23 nM; on IRAK4, under 0.5 nM; at FLT3, under 0.5 nM.

With `CC(O)(c1ccc2ncc(-c3cncc(N[C@@H]4CCCNC4)n3)n2c1)C(F)(F)F` (single isomer, unassigned) [Compound 29a], the 50% inhibitory concentration (IC50) at IRAK1 was determined as 27 nM; in the assay with MOLM14 D835Y cells it was 106 nM; at IRAK4, 0.8 nM; at FLT3 it was 1 nM.

On to `CC(O)(c1ccc2ncc(-c3cncc(N[C@H]4CNC[C@@H]4F)n3)n2c1)C(F)(F)F` (single isomer, unassigned) [Compound 30a], for which the IC50 at IRAK1 was 108 nM; with MOLM14 D835Y cells (Homo sapiens, MOLM-14, 48 h), 576 nM; on IRAK4, 5 nM; at FLT3 it was 2 nM.

As to `CC(O)(c1ccc2ncc(-c3cncc(N[C@H]4CNC[C@@H]4F)n3)n2c1)C(F)(F)F` (single isomer, unassigned) [Compound 32a], the IC50 on IRAK1 was 53 nM; in the assay on MOLM14 D835Y cells, 408 nM; at IRAK4 it was 1 nM; on FLT3 it was 2 nM.

As for `CC(O)(c1ccc2ncc(-c3cncc(N[C@H]4CNCC[C@@H]4F)n3)n2c1)C(F)(F)F` (single isomer, unassigned) [Compound 33a], the IC50 was determined as 9 nM at IRAK1, 65 nM in the assay with MOLM14 D835Y cells, 0.8 nM on IRAK4 and 0.7 nM at FLT3.

Take `CC(O)(c1ccc2ncc(-c3nc(N[C@H]4CNC[C@@H]4F)ncc3F)n2c1)C(F)(F)F` (single isomer, unassigned) [Compound 36a]: the IC50 was 4 nM on IRAK1; 41 nM in the assay on MOLM14 D835Y cells (Homo sapiens, MOLM-14, 48 h); 2 nM on IRAK4; under 0.5 nM at FLT3.

Take `CC(O)(c1ccc2ncc(-c3nc(N[C@H]4CNC[C@@H]4F)ncc3F)n2c1)C(F)(F)F` (single isomer, unassigned) [Compound 38a]: the IC50 on IRAK1 was 1 nM; in the assay with MOLM14 D835Y cells, 51 nM; at IRAK4 it was 0.6 nM; at FLT3 it was under 0.5 nM.

For `CC(O)(c1ccc2ncc(-c3nc(N[C@@H]4CCCNC4)ncc3F)n2c1)C(F)(F)F` (single isomer, unassigned) [Compound 39a], the IC50 on IRAK1 is 2 nM; in the assay on MOLM14 D835Y cells it was 32 nM; at IRAK4, 1 nM; on FLT3, under 0.5 nM.

`CC(O)(c1cn2c(-c3nc(N[C@@H]4CCCNC4)ncc3F)cnc2cn1)C(F)(F)F` (single isomer, unassigned) [Compound 131a]: the half-inhibitory concentration (IC50) at IRAK1 came to 15 nM; on IRAK4, 28 nM; on FLT3, 2 nM.

With `CC(O)(c1cn2c(-c3nc(N[C@@H]4CCCNC4)ncc3F)cnc2cn1)C(F)(F)F` (single isomer, unassigned) [Compound 132a], the IC50 was 3 nM on IRAK1, 2 nM on IRAK4 and under 0.5 nM at FLT3.

`CC(O)(c1cn2c(-c3nc(N[C@H]4CNCC[C@@H]4F)ncc3F)cnc2cn1)C(F)(F)F` (single isomer, unassigned) [Compound 133a]: the figures for the IC50 on IRAK1, at IRAK4 and on FLT3 were 15 nM, 15 nM and 1 nM, respectively.

For `CC(O)(c1cn2c(-c3nc(N[C@H]4CNCC[C@@H]4F)ncc3F)cnc2cn1)C(F)(F)F` (single isomer, unassigned) [Compound 134a], the figures for the concentration for half-maximal inhibition (IC50) on IRAK1, on IRAK4 and at FLT3 were 2 nM, 1 nM and under 0.5 nM, respectively.

As for `COc1cc2ncc(-c3nc(N[C@H]4CNC[C@@H]4F)ncc3F)n2nc1C1CC1` [Compound 2a, 4-(6-cyclopropyl-7-methoxyimidazo[1,2-b]pyridazin-3-yl)-5-fluoro-N-((3S,4S)-4-fluoropyrrolidin-3-yl)pyrimidin-2-amine], the IC50 on IRAK1 was 1 nM; in the assay with MOLM14 D835Y cells (Homo sapiens, MOLM-14, 48 h), 4 nM; on IRAK4, 0.7 nM; at FLT3, under 0.5 nM.

Turning to `COc1cc2ncc(-c3nc(N[C@H]4CNCC[C@@H]4F)ncc3F)n2nc1C1(C)COC1` [Compound 70a, 5-fluoro-N-((3S,4S)-4-fluoropiperidin-3-yl)-4-(7-methoxy-6-(3-methyloxetan-3-yl)imidazo[1,2-b]pyridazin-3-yl)pyrimidin-2-amine], the IC50 at IRAK1 is 3 nM; on IRAK4, under 0.5 nM; on FLT3, under 0.5 nM.

With `[2H]C([2H])([2H])Oc1cc2ncc(-c3ccnc(N[C@H]4CNCC[C@@H]4F)n3)n2nc1C1CC1` [Compound 128a, 4-(6-cyclopropyl-7-(methoxy-d3)imidazo[1,2-b]pyridazin-3-yl)-N-((3S,4S)-4-fluoropiperidin-3-yl)pyrimidin-2-amine], the 50% inhibitory concentration (IC50) at IRAK1 was 24 nM; at IRAK4, 0.7 nM; on FLT3, under 0.5 nM.

Consider `[2H]C([2H])([2H])Oc1cc2ncc(-c3ccnc(N[C@@H]4CCCNC4)n3)n2nc1C1CC1` [Compound 129a, (R)-4-(6-cyclopropyl-7-(methoxy-d3)imidazo[1,2-b]pyridazin-3-yl)-N-(piperidin-3-yl)pyrimidin-2-amine], for which the IC50 on IRAK1 was 86 nM; at IRAK4 it was 2 nM; on FLT3 it was under 0.5 nM.
